Key:
Assay in all cases: relative viability (nuclei count vs DMSO), 5 days (fraction); higher = more cells survive
[1] = compound: C1CC(C1)(C(=O)O)C(=O)O.[NH2-].[NH2-].[Pt+2] [Carboplatin] + C[C@]1(O)C[C@@H](c2nc(-c3ccc4ccc(-c5ccccc5)nc4c3)c3c(N)nccn32)C1 [Linsitinib] (partner 1 µM)
Procedure, shortened: (§1)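 Lung cancer cell lines, seeded in 1536-well plates, were treated the following day by pin tool with a single drug or with five library-drug doses (not always all listed) in √10 steps on top of a fixed anchor-drug dose. Cells were fixed and nuclei stained in one step after 5 days, and nuclei were counted. Relative viability is the nuclei count for treated wells divided by that for vehicle wells, reported as medians of duplicate plates.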

[2] = compound: CC[C@H](C)N1C=C(C2=C(C=C(C=C21)C3=CN=C(C=C3)N4CCNCC4)C(=O)NCC5=C(C=C(NC5=O)C)C)C [GSK126] + COc1cc2c(Oc3ccc(NC(=O)C4(C(=O)Nc5ccc(F)cc5)CC4)cc3F)ccnc2cc1OCCCN1CCOCC1 [Foretinib] (partner 0.25 µM)
Procedure, shortened: as §1

[3] = compound: CC[C@H](C)N1C=C(C2=C(C=C(C=C21)C3=CN=C(C=C3)N4CCNCC4)C(=O)NCC5=C(C=C(NC5=O)C)C)C [GSK126] + Nc1ncn([C@H]2C[C@H](O)[C@@H](CO)O2)c(=O)n1 [Decitabine] (partner 2 µM)
Procedure, shortened: as §1

[4] = compound: NS(=O)(=O)OC[C@@H]1C[C@@H](n2ccc3c(N[C@H]4CCc5ccccc54)ncnc32)C[C@@H]1O [MLN4924] + Cc1nc(NC(=O)N2CCC[C@H]2C(N)=O)sc1-c1ccnc(C(C)(C)C(F)(F)F)c1 [Alpelisib] (partner 2 µM)
Procedure, shortened: as §1

Row | Cell Line | relative viability ([1]; first compound 0.08 µM) | relative viability ([1]; first compound 0.253 µM) | relative viability ([1]; first compound 0.8 µM) | relative viability ([1]; first compound 2.53 µM) | relative viability ([1]; first compound 8 µM) | relative viability ([2]; first compound 0.08 µM) | relative viability ([2]; first compound 0.253 µM) | relative viability ([2]; first compound 0.8 µM) | relative viability ([2]; first compound 2.53 µM) | relative viability ([2]; first compound 8 µM) | relative viability ([3]; first compound 0.08 µM) | relative viability ([3]; first compound 0.253 µM) | relative viability ([3]; first compound 0.8 µM) | relative viability ([3]; first compound 2.53 µM) | relative viability ([3]; first compound 8 µM) | relative viability ([4]; first compound 0.04 µM) | relative viability ([4]; first compound 0.1265 µM) | relative viability ([4]; first compound 0.4 µM) | relative viability ([4]; first compound 1.265 µM) | relative viability ([4]; first compound 4 µM)
1 | NCI-H1975 | 0.894 | 0.986 | 0.999 | 1.02 | 0.903 | 0.952 | 0.828 | 0.886 | 0.873 | 0.932 | 0.427 | 0.321 | 0.431 | 0.397 | 0.377 | 0.694 | 1.11 | 1.26 | 0.339 | 0.21
2 | BEN | 1.01 | 1.05 | 0.722 | 0.748 | 0.777 | 0.712 | 0.767 | 0.575 | 0.683 | 0.607 | 0.834 | 0.658 | 0.78 | 0.901 | 0.744 | 0.868 | 0.458 | 0.372 | 0.151 | 0.147
3 | NCI-H441 | 0.608 | 0.506 | 0.662 | 0.544 | 0.573 | 0.889 | 0.866 | 0.975 | 0.926 | 0.715 | 0.248 | 0.236 | 0.143 | 0.214 | 0.234 | 0.549 | 0.526 | 0.296 | 0.123 | 0.168
4 | NCI-H3122 | 0.947 | 1.01 | 0.991 | 1.08 | 0.973 | 0.983 | 1.03 | 0.985 | 1.01 | 0.994 | 0.417 | 0.373 | 0.386 | 0.466 | 0.543 | 0.799 | 0.452 | 0.251 | 0.188 | 0.133
5 | NCI-H1355 | 0.971 | 0.805 | 0.838 | 0.869 | 0.727 | 1.05 | 1.05 | 0.964 | 1.09 | 0.979 | 0.391 | 0.334 | 0.318 | 0.336 | 0.416 | 0.831 | 0.865 | 0.776 | 0.35 | 0.152
6 | A549 | 0.715 | 0.717 | 0.666 | 0.522 | 0.446 | 1.01 | 0.974 | 0.922 | 0.954 | 0.904 | 0.224 | 0.299 | 0.26 | 0.253 | 0.272 | 0.657 | 0.748 | 0.61 | 0.05 | 0.05
7 | NCI-H1734 | 0.823 | 0.904 | 0.909 | 0.876 | 0.851 | 0.931 | 0.868 | 0.771 | 0.817 | 0.904 | 0.511 | 0.517 | 0.492 | 0.515 | 0.496 | 0.947 | 0.95 | 0.246 | 0.139 | 0.118
8 | LXF-289 | 0.992 | 1.02 | 0.912 | 0.939 | 0.926 | 0.962 | 1.01 | 0.952 | 0.973 | 1.02 | 0.38 | 0.36 | 0.395 | 0.388 | 0.374 | 0.814 | 0.715 | 0.452 | 0.231 | 0.142
9 | RERF-LC-KJ | 0.913 | 0.895 | 0.97 | 0.807 | 0.726 | 0.955 | 0.893 | 0.852 | 0.897 | 0.825 | 0.717 | 0.731 | 0.715 | 0.735 | 0.779 | 0.89 | 0.815 | 0.206 | 0.183 | 0.237
10 | NCI-H2087 | 1.09 | 0.857 | 0.782 | 0.871 | 0.585 | 1.2 | 0.999 | 1.05 | 1.28 | 1.13 | 0.246 | 0.272 | 0.269 | 0.293 | 0.346 | 1.13 | 0.815 | 0.381 | 0.178 | 0.136
11 | NCI-H1793 | 1.04 | 1.1 | 0.675 | 0.848 | 0.839 | 0.799 | 0.519 | 0.581 | 0.776 | 0.885 | 0.601 | 0.423 | 0.48 | 0.567 | 0.475 | 0.804 | 0.801 | 0.732 | 0.513 | 0.276
12 | HCC-827 | 1.04 | 0.891 | 0.857 | 0.936 | 0.955 | 1.02 | 1.02 | 1.01 | 1.03 | 1.09 | 0.396 | 0.368 | 0.313 | 0.325 | 0.323 | 0.893 | 0.47 | 0.595 | 0.234 | 0.159
13 | NCI-H1395 | 1.02 | 1.05 | 0.82 | 0.751 | 0.576 | 1.17 | 0.878 | 1.04 | 1.07 | 0.785 | 0.718 | 0.671 | 0.713 | 0.736 | 0.652 | 1.05 | 0.812 | 0.553 | 0.343 | 0.365
14 | NCI-H23 | 0.536 | 0.716 | 0.542 | 0.563 | 0.492 | 1 | 0.313 | 0.901 | 1.03 | 0.98 | 0.314 | 0.337 | 0.3 | 0.268 | 0.334 | 0.611 | 0.5 | 0.28 | 0.149 | 0.155
15 | HARA | 0.94 | 0.985 | 0.703 | 0.853 | 0.904 | 1.14 | 0.93 | 0.874 | 0.877 | 0.839 | 0.628 | 0.629 | 0.403 | 0.519 | 0.402 | 0.716 | 0.576 | 0.249 | 0.0868 | 0.0836
16 | HCC-366 | 0.848 | 0.595 | 0.48 | 0.437 | 0.265 | 1.02 | 0.974 | 0.907 | 0.892 | 0.935 | 0.34 | 0.34 | 0.336 | 0.463 | 0.338 | 0.58 | 0.733 | 0.877 | 0.369 | 0.027
17 | NCI-H838 | 1.03 | 1.09 | 0.961 | 0.958 | 1 | 1.1 | 1.07 | 0.929 | 0.992 | 0.954 | 0.52 | 0.492 | 0.451 | 0.508 | 0.502 | 0.795 | 0.658 | 0.261 | 0.168 | 0.148
18 | NCI-H2023 | 0.745 | 0.644 | 0.73 | 0.576 | 0.205 | 1.02 | 0.885 | 0.961 | 1.05 | 1.15 | 0.267 | 0.232 | 0.205 | 0.209 | 0.219 | 0.731 | 0.528 | 0.224 | 0.0584 | 0.0729
19 | HCC-78 | 0.509 | 0.461 | 0.416 | 0.46 | 0.511 | 0.561 | 0.556 | 0.521 | 0.63 | 0.548 | 0.756 | 0.659 | 0.683 | 0.839 | 0.74 | 0.429 | 0.253 | 0.536 | 0.149 | 0.139
20 | EPLC-272H | 1.17 | 1.32 | 1.01 | 1.11 | 1.01 | 0.809 | 0.789 | 0.736 | 0.742 | 0.754 | 0.441 | 0.349 | 0.39 | 0.358 | 0.361 | 1.05 | 0.957 | 0.131 | 0.136 | 0.195
21 | LCLC-97TM1 | 0.177 |  | 0.17 | 0.195 | 0.192 | 1.03 | 0.942 | 0.954 | 1.06 | 0.994 | 0.237 | 0.257 | 0.218 | 0.24 | 0.253 | 0.255 | 0.208 | 0.129 | 0.114 | 0.119
22 | LK-2 | 0.634 | 0.765 | 0.458 | 0.428 | 0.726 | 1.44 | 1.33 | 1.28 | 1.15 | 1.19 | 0.42 | 0.239 | 0.333 | 0.273 | 0.31 | 0.991 | 0.886 | 0.667 | 0.267 | 0.299
23 | NCI-H322M | 0.915 | 0.956 | 0.785 | 0.812 | 0.799 | 0.942 | 1.03 | 0.958 | 1.13 | 0.972 | 0.656 | 0.676 | 0.758 | 0.733 | 0.754 | 0.783 | 0.786 | 0.713 | 0.259 | 0.321
24 | NCI-H2126 | 0.724 | 0.741 | 0.713 | 0.687 | 0.667 | 1.19 | 0.847 | 1.21 | 1.28 | 1.25 | 0.567 | 0.591 | 0.609 | 0.622 | 0.593 | 0.781 | 0.718 | 0.647 | 0.338 | 0.273
25 | NCI-H596 | 1.15 | 1.09 | 0.904 | 0.809 | 0.771 | 0.854 | 0.497 | 1.08 | 0.975 | 0.809 | 1.09 | 0.882 | 1.04 | 1.05 | 1.06 | 0.468 | 0.61 | 0.426 | 0.664 | 0.52
26 | LU99A | 0.621 | 0.583 | 0.508 | 0.464 | 0.417 | 0.826 | 0.838 | 0.74 | 0.746 | 0.694 | 0.986 | 0.915 | 1.03 | 0.916 | 0.999 | 0.418 | 0.244 | 0.299 | 0.173 | 0.153
27 | NCI-H1666 | 0.823 | 0.879 | 0.747 | 0.794 | 0.458 | 0.997 | 0.925 | 0.918 | 0.921 | 0.917 | 0.731 | 0.755 | 0.755 | 0.82 | 0.726 | 1.18 | 0.832 | 0.432 | 0.148 | 0.205
28 | NCI-H520 | 0.997 | 1.09 | 1.02 | 0.943 | 0.784 | 1.04 | 0.693 | 0.719 | 0.78 | 0.909 | 0.611 | 0.505 | 0.487 | 0.494 | 0.557 | 0.535 | 0.432 | 0.308 | 0.22 | 0.181

From the supplement of paper PMC10307832
